Among the test systems are SNB-75 CNS; CAKI-1 renal; SNB-19 CNS; RPMI-8226 leukemia; HOP-92 NSCLC; ACHN renal; M14 melanoma; HL-60(TB) leukemia; MDA-MB-435; NCI-H460 lung.
Common to all, as to experiment: growth of human tumour cells (NCI), 48 h

These results are taken from PubChem BioAssay (NCI).

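Test compounds were applied to cells in 96-well plates for 48 hours at 5 doses. GI50 is the concentration that inhibits growth by half. TGI: total growth inhibition.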

Regarding `Oc1ccc(/C=N/NC(=S)Nc2cccnc2)nc1`, the TGI in the assay with SNB-75 CNS was 97 µM; in the assay on CAKI-1 renal, above 100 µM; in the assay on SNB-19 CNS, above 100 µM; in the assay on RPMI-8226 leukemia it was 76.4 µM; with HOP-92 NSCLC, 59.6 µM; with ACHN renal, 32.3 µM. In addition, the figures for the TGI with M14 melanoma, with HL-60(TB) leukemia and in the assay on MDA-MB-435 were above 33.3 µM, 14.4 µM and above 100 µM, respectively.

As for `C=CCN1C(=O)[C@]2(SC1=S)[C@H](c1cccc(Cl)c1)CN(C)[C@]21C(=O)NC2C=CC(Cl)=C[C@H]21` (some centres not stated), the GI50 was 2.37 µM with SNB-75 CNS; 4.83 µM in the assay on SNB-19 CNS; 3.62 µM in the assay on NCI-H460 lung; 1.64 µM in the assay with RPMI-8226 leukemia; 3.17 µM in the assay with HOP-92 NSCLC; 2.99 µM in the assay on ACHN renal. Further, the values for the GI50 with M14 melanoma, with HL-60(TB) leukemia and with MDA-MB-435 were 2.35 µM, 1.33 µM and 5.9 µM, respectively. The TGI in the assay with SNB-75 CNS turned out to be 18.2 µM; in the assay on SNB-19 CNS, 16.8 µM; in the assay on NCI-H460 lung, 13.6 µM; with RPMI-8226 leukemia, 4.97 µM; in the assay on HOP-92 NSCLC it was 14.9 µM; with ACHN renal it was 13.4 µM. In addition, the figures for the TGI in the assay with M14 melanoma, in the assay on HL-60(TB) leukemia and in the assay on MDA-MB-435 were 11.9 µM, 3.58 µM and 21.5 µM, respectively.

Regarding `COc1cccc(-c2nn(-c3ccccc3)cc2-c2ccnc(NCCCNS(=O)(=O)c3ccc(C(F)(F)F)cc3)c2)c1`, the GI50 in the assay on SNB-75 CNS is 5.1 µM; in the assay on CAKI-1 renal it was 5.76 µM; in the assay with NCI-H460 lung, 6 µM; with RPMI-8226 leukemia it was 3.63 µM; in the assay with HOP-92 NSCLC, 3.68 µM; in the assay on ACHN renal, 4.8 µM. In addition, the GI50 in the assay on M14 melanoma is 4.46 µM; in the assay with HL-60(TB) leukemia, 3.97 µM; in the assay with MDA-MB-435 it was 4.2 µM. The TGI with SNB-75 CNS, in the assay with CAKI-1 renal, with NCI-H460 lung, in the assay with RPMI-8226 leukemia, with HOP-92 NSCLC and with ACHN renal was above 100 µM in each case. For the same compound, the TGI with M14 melanoma, in the assay on HL-60(TB) leukemia and in the assay on MDA-MB-435 was above 100 µM in each case.

For the compound `CC(=O)/C=C/c1ccc(N(CCO)Cc2ccc(C(C)(C)C)cc2)cc1`, the GI50 is 54.7 µM in the assay on SNB-75 CNS; 116 µM with SNB-19 CNS; 39.9 µM in the assay with NCI-H460 lung; 28.2 µM in the assay on RPMI-8226 leukemia; 27.6 µM in the assay with HOP-92 NSCLC; 50.1 µM in the assay with ACHN renal. Besides, the GI50 with M14 melanoma is 48.9 µM; in the assay on HL-60(TB) leukemia, 24.9 µM; in the assay with MDA-MB-435, 64 µM. Also, the TGI was found to be 200 µM in the assay on SNB-75 CNS; 241 µM in the assay on SNB-19 CNS; 144 µM in the assay on NCI-H460 lung; 72.5 µM in the assay on RPMI-8226 leukemia; 156 µM with HOP-92 NSCLC; 170 µM with ACHN renal. The TGI is 200 µM with M14 melanoma, 66.8 µM with HL-60(TB) leukemia and 196 µM in the assay on MDA-MB-435.

With `CC(=O)c1ccc(Oc2c3ccccc3nc3occc23)cc1`, the GI50 with SNB-75 CNS is 21.1 µM; with SNB-19 CNS, 7.98 µM; with NCI-H460 lung, 23.3 µM; in the assay with RPMI-8226 leukemia, 4.63 µM; in the assay with HOP-92 NSCLC it was 31.6 µM; in the assay on ACHN renal it was 3.57 µM. For the same compound, the results for the GI50 with M14 melanoma, with HL-60(TB) leukemia and in the assay on MDA-MB-435 were 6.81 µM, 8.43 µM and 2.02 µM, respectively. In addition, the TGI with SNB-75 CNS, with SNB-19 CNS, in the assay with NCI-H460 lung, with RPMI-8226 leukemia, in the assay with HOP-92 NSCLC and in the assay with ACHN renal was above 100 µM in each case. Moreover, the TGI was above 100 µM in the assay on M14 melanoma, above 100 µM with HL-60(TB) leukemia and 5.41 µM in the assay on MDA-MB-435.

For the compound `O=C(CC1Sc2ccccc2NC1=O)NNc1ccc(F)cc1` (configuration not stated), the GI50 in the assay on SNB-75 CNS was 14.9 µM; in the assay with CAKI-1 renal it was 42.5 µM; in the assay with NCI-H460 lung, 30.8 µM; in the assay on RPMI-8226 leukemia it was 52 µM; in the assay with HOP-92 NSCLC, above 100 µM; with ACHN renal, 7.07 µM. Also, the GI50 was 5.5 µM in the assay on M14 melanoma, 7.9 µM in the assay on HL-60(TB) leukemia and 4.34 µM with MDA-MB-435. Besides, the TGI with SNB-75 CNS, in the assay on CAKI-1 renal, in the assay with NCI-H460 lung, with RPMI-8226 leukemia, in the assay on HOP-92 NSCLC and in the assay on ACHN renal was above 100 µM each time. For the same compound, the TGI in the assay with M14 melanoma, in the assay with HL-60(TB) leukemia and in the assay with MDA-MB-435 was above 100 µM each time.

With `CCCCC[C@H]1C/C=C2/C(=O)C(Cl)=C[C@@H]2C/C=C\CCCC(=O)O1`, the GI50 was 1.76 µM with SNB-75 CNS; 0.59 µM in the assay on SNB-19 CNS; 0.629 µM in the assay on NCI-H460 lung; 0.171 µM in the assay on RPMI-8226 leukemia; 0.587 µM in the assay on HOP-92 NSCLC; 0.361 µM in the assay with ACHN renal. Further, the GI50 with M14 melanoma was 0.422 µM; with HL-60(TB) leukemia, 0.565 µM; in the assay on MDA-MB-435, 0.337 µM. Moreover, the TGI stood at 6.09 µM in the assay on SNB-75 CNS; 2.68 µM with SNB-19 CNS; 1.91 µM in the assay with NCI-H460 lung; 1.52 µM in the assay with RPMI-8226 leukemia; 1.38 µM with HOP-92 NSCLC; 0.704 µM in the assay with ACHN renal. Moreover, the TGI in the assay on M14 melanoma is 0.999 µM; in the assay on HL-60(TB) leukemia, 2.72 µM; in the assay on MDA-MB-435 it was 1.11 µM.
